Test results reported in ChEMBL document CHEMBL1150850, “Cytotoxic principles from Ventilago leiocarpa” (J Nat Prod, 2001).

Columns and labels:
K562 [1] = test: Growth inhibition of human K562 cells assessed as [3H]thymidine incorporation at 3.125 uM after 3 days by scintillation counting; assay type: functional; settings: read-out: GI
Calu-1 [2] = test: Growth inhibition of human Calu1 cells assessed as [3H]thymidine incorporation at 3.125 uM after 3 days by scintillation counting; assay type: functional; settings: read-out: GI
K562 [3] = test: Growth inhibition of human K562 cells assessed as [3H]thymidine incorporation at 6.25 uM after 3 days by scintillation counting; assay type: functional; settings: read-out: GI
Raji [4] = test: Growth inhibition of human Raji cells assessed as [3H]thymidine incorporation at 50 uM after 3 days by scintillation counting; assay type: functional; settings: read-out: GI
HeLa [5] = test: Growth inhibition of human HeLa cells assessed as [3H]thymidine incorporation at 50 uM after 3 days by scintillation counting; assay type: functional; settings: read-out: GI
WISH [6] = test: Growth inhibition of human WISH cells assessed as [3H]thymidine incorporation at 3.125 uM after 3 days by scintillation counting; assay type: functional; settings: read-out: GI
K562 [7] = test: Growth inhibition of human K562 cells assessed as [3H]thymidine incorporation at 25 uM after 3 days by scintillation counting; assay type: functional; settings: read-out: GI
K562 [8] = test: Inhibition of human K562 cell proliferation assessed as [3H]thymidine incorporation after 3 days by scintillation counting; assay type: functional, cell-based
HeLa [9] = test: Growth inhibition of human HeLa cells assessed as [3H]thymidine incorporation at 6.25 uM after 3 days by scintillation counting; assay type: functional; settings: read-out: GI
Vero [10] = test: Growth inhibition of african green monkey Vero cells assessed as [3H]thymidine incorporation at 12.5 uM after 3 days by scintillation counting; assay type: cell-based; settings: chlorocebus sabaeus, 72 h
K562 [11] = test: Growth inhibition of human K562 cells assessed as [3H]thymidine incorporation at 12.5 uM after 3 days by scintillation counting; assay type: functional; settings: read-out: GI
Raji [12] = test: Growth inhibition of human Raji cells assessed as [3H]thymidine incorporation at 6.25 uM after 3 days by scintillation counting; assay type: functional; settings: read-out: GI
WISH [13] = test: Growth inhibition of human WISH cells assessed as [3H]thymidine incorporation at 12.5 uM after 3 days by scintillation counting; assay type: functional; settings: read-out: GI
WISH [14] = test: Growth inhibition of human WISH cells assessed as [3H]thymidine incorporation at 50 uM after 3 days by scintillation counting; assay type: functional; settings: read-out: GI
HeLa [15] = test: Growth inhibition of human HeLa cells assessed as [3H]thymidine incorporation at 12.5 uM after 3 days by scintillation counting; assay type: functional; settings: read-out: GI
[16] = Growth inhibition of african green monkey Vero cells assessed as [3H]thymidine incorporation at 3.125 uM after 3 days by scintillation counting; assay type: cell-based; settings: chlorocebus sabaeus, read-out: GI
Raji [17] = test: Growth inhibition of human Raji cells assessed as [3H]thymidine incorporation at 12.5 uM after 3 days by scintillation counting; assay type: functional; settings: read-out: GI
Calu-1 [18] = test: Growth inhibition of human Calu1 cells assessed as [3H]thymidine incorporation at 12.5 uM after 3 days by scintillation counting; assay type: functional; settings: read-out: GI
HeLa [19] = test: Growth inhibition of human HeLa cells assessed as [3H]thymidine incorporation at 3.125 uM after 3 days by scintillation counting; assay type: functional; settings: read-out: GI
Calu-1 [20] = test: Growth inhibition of human Calu1 cells assessed as [3H]thymidine incorporation at 6.25 uM after 3 days by scintillation counting; assay type: functional; settings: read-out: GI
Raji [21] = test: Inhibition of human Raji cell proliferation assessed as [3H]thymidine incorporation after 3 days by scintillation counting; assay type: functional, cell-based
HeLa [22] = test: Growth inhibition of human HeLa cells assessed as [3H]thymidine incorporation at 25 uM after 3 days by scintillation counting; assay type: functional; settings: read-out: GI
Vero [23] = test: Inhibition of african green monkey Vero cell proliferation assessed as [3H]thymidine incorporation after 3 days by scintillation counting; assay type: cell-based; settings: Chlorocebus sabaeus
Calu-1 [24] = test: Inhibition of human Calu1 cell proliferation assessed as [3H]thymidine incorporation after 3 days by scintillation counting; assay type: functional, cell-based
WISH [25] = test: Growth inhibition of human WISH cells assessed as [3H]thymidine incorporation at 25 uM after 3 days by scintillation counting; assay type: functional; settings: read-out: GI
[26] = Growth inhibition of african green monkey Vero cells assessed as [3H]thymidine incorporation at 25 uM after 3 days by scintillation counting; assay type: cell-based; settings: chlorocebus sabaeus, read-out: GI
[27] = Growth inhibition of african green monkey Vero cells assessed as [3H]thymidine incorporation at 50 uM after 3 days by scintillation counting; assay type: cell-based; settings: chlorocebus sabaeus, read-out: GI
Raji [28] = test: Growth inhibition of human Raji cells assessed as [3H]thymidine incorporation at 3.125 uM after 3 days by scintillation counting; assay type: functional; settings: read-out: GI
Calu-1 [29] = test: Growth inhibition of human Calu1 cells assessed as [3H]thymidine incorporation at 50 uM after 3 days by scintillation counting; assay type: functional; settings: read-out: GI
Calu-1 [30] = test: Growth inhibition of human Calu1 cells assessed as [3H]thymidine incorporation at 25 uM after 3 days by scintillation counting; assay type: functional; settings: read-out: GI
Raji [31] = test: Growth inhibition of human Raji cells assessed as [3H]thymidine incorporation at 25 uM after 3 days by scintillation counting; assay type: functional; settings: read-out: GI
WISH [32] = test: Growth inhibition of human WISH cells assessed as [3H]thymidine incorporation at 6.25 uM after 3 days by scintillation counting; assay type: functional; settings: read-out: GI
HeLa [33] = test: Inhibition of human HeLa cell proliferation assessed as [3H]thymidine incorporation after 3 days by scintillation counting; assay type: functional, cell-based
[34] = Growth inhibition of african green monkey Vero cells assessed as [3H]thymidine incorporation at 6.25 uM after 3 days by scintillation counting; assay type: cell-based; settings: chlorocebus sabaeus, read-out: GI
K562 [35] = test: Growth inhibition of human K562 cells assessed as [3H]thymidine incorporation at 50 uM after 3 days by scintillation counting; assay type: functional; settings: read-out: GI
WISH [36] = test: Inhibition of human WISH cell proliferation assessed as [3H]thymidine incorporation after 3 days by scintillation counting; assay type: functional, cell-based

Cc1cc(O)c2c(c1)C(=O)c1c(c(O)cc(O)c1-c1c(O)cc(O)c3c1C(=O)c1cc(C)cc(O)c1C3=O)C2=O [SKYRIN]
inhibition of growth at 3.125 µM (K562 [1]): 29.7% | inhibition of growth at 3.125 µM (Calu-1 [2]): 14.3% | inhibition of growth at 6.25 µM (K562 [3]): 22.2% | inhibition of growth at 50 µM (Raji [4]): 100% | inhibition of growth at 50 µM (HeLa [5]): 100% | inhibition of growth at 3.125 µM (WISH [6]): 24.7% | inhibition of growth at 25 µM (K562 [7]): 50.6% | IC50 (K562 [8]): 27.3 µM | inhibition of growth at 6.25 µM (HeLa [9]): 27% | growth inhibition (GI) (Vero [10]): 34.8% | inhibition of growth at 12.5 µM (K562 [11]): 33.5% | inhibition of growth at 6.25 µM (Raji [12]): 36.8% | inhibition of growth at 12.5 µM (WISH [13]): 37.8% | inhibition of growth at 50 µM (WISH [14]): 100% | inhibition of growth at 12.5 µM (HeLa [15]): 55% | inhibition at 72 h, 3.125 µM [16]: 19.9% | inhibition of growth at 12.5 µM (Raji [17]): 48.1% | inhibition of growth at 12.5 µM (Calu-1 [18]): 24.9% | inhibition of growth at 3.125 µM (HeLa [19]): 5.8% | inhibition of growth at 6.25 µM (Calu-1 [20]): 20.6% | IC50 (Raji [21]): 12.3 µM | inhibition of growth at 25 µM (HeLa [22]): 100% | IC50 (Vero [23]): 18.3 µM | IC50 (Calu-1 [24]): 15.5 µM | inhibition of growth at 25 µM (WISH [25]): 60% | inhibition at 72 h, 25 µM [26]: 70.5% | inhibition at 72 h, 50 µM [27]: 100% | inhibition of growth at 3.125 µM (Raji [28]): 33.8% | inhibition of growth at 50 µM (Calu-1 [29]): 100% | inhibition of growth at 25 µM (Calu-1 [30]): 100% | inhibition of growth at 25 µM (Raji [31]): 82.1% | inhibition of growth at 6.25 µM (WISH [32]): 23.4% | IC50 (HeLa [33]): 11.3 µM | inhibition at 72 h, 6.25 µM [34]: 23.1% | inhibition of growth at 50 µM (K562 [35]): 100% | IC50 (WISH [36]): 21.3 µM
